According to article PMC8869984, “Multifunctional Silver(I) Complexes with Metronidazole Drug Reveal Antimicrobial Properties and Antitumor Activity against Human Hepatoma and Colorectal Adenocarcinoma Cells” (Cancers, 2022):
≈ marks a conversion by molar mass, not a printed value. Where two headings read alike, the source gives them in different places.

What was measured:
HepG2 cells [1] = assay: MTT assay (mitochondrial activity), 72 h exposure; format: cell-based, human; conditions: mean ± SD, n = 3
Protocol: (§1) The human hepatoma (HepG2) and colorectal adenocarcinoma (Caco-2) cells were purchased from the American Type Culture Collection: ATCC HB-8065 and ATCC HTB-37, respectively. These cells were cultured in Minimum Essential Medium Eagle (MEME) (ATCC). The murine fibroblasts cell line (Balb/c 3T3 clone A31) (gift from the Department of Swine Diseases of the National Veterinary Research Institute in Pulawy) was cultured in Dulbecco’s Modified Eagle Medium (DMEM) (ATCC). The media were supplemented with 10% BCS (Balb/c 3T3), 10% FBS (HepG2), 20% FBS (Caco-2), 1% L-glutamine, 1% antibiotic solution. The cells were maintained in 75 cm^2 cell culture flasks (NUNC) in a humidified incubator at 37 °C in an atmosphere of 5% CO2. The medium was refreshed every two or three days, and the cells were trypsinized by 0.25% trypsin–0.02% EDTA after reaching 70–80% confluence. Single cell suspensions were prepared and adjusted to a density of 2 × 10^5 cell/mL^−1 (HepG2), 1 × 10^5 cell/mL^−1 (Caco-2) and 5 × 10^4 cell/mL^−1 (Balb/c 3T3). The cell suspension was transferred to 96-well plates (100 µL/well) and incubated for 24 h before the exposure to the studied compounds. Stock solutions of ligands and metal complexes were prepared in sterile water and diluted with culture medium to obtain a concentration range from 0.1 to 10 µM. The final concentration of sterile water was 0.1% in the medium. […] As a negative control, cultured cells were grown in the absence of studied compounds. Each concentration was tested in six replicates in three independent experiments. Cytotoxicity was assessed after 72 h of exposure of the cells to compounds. The medium was not changed during the incubation time.
The metabolic activity of living cells was assessed by the measurement of the activity of dehydrogenases. […] The plate was shaken for 15 min at room temperature and transferred to a microplate reader Synergy HTX multi-mode reader (BioTek® Instruments Inc., Winooski, VT, USA) to measure the absorbance at 570 nm, using a blank as a reference. Cytotoxicity was expressed as a percentage of the negative control. […]

HepG2 cells [2] = assay: NRU assay (lysosomal activity), 72 h exposure; format: cell-based, human; conditions: mean ± SD, n = 3
Protocol: as §1
This method is based on staining living cells with neutral red, which readily diffuses through the plasma membrane and accumulates in lysosomes. […] After 10 min of shaking, the absorbance of the dissolved NR was measured using a Synergy HTX multi-mode reader (BioTek® Instruments Inc., Winooski, VT, USA) at 540 nm using a blank as a reference. Cytotoxicity was expressed as a percentage of the negative control. […]

HepG2 cells [3] = assay: TPC assay (total protein content), 72 h exposure; format: cell-based, human; conditions: mean ± SD, n = 3
Protocol: as §1
This assay is based upon staining the total cellular protein (proliferation). After the incubation, the medium containing the drug was removed, and 100 µL Coomassie brilliant blue R-250 dye was added to each well. The plate was shaken for 10 min. Then, the stain was removed and the cells were rinsed twice with 100 µL of washing solution (glacial acetic acid/ethanol/water, 5:10:85, v:v:v). After that, 100 µL of the desorbing solution (1 M potassium acetate) was added, and plates were shaken again for 10 min. The absorbance was measured at 595 nm in a microplate reader Synergy HTX multi-mode reader (BioTek® Instruments Inc., Winooski, VT, USA) using a blank as a reference. Cytotoxicity was expressed as a percentage of the negative control.
The study was performed in three independent experiments. The obtained results are presented as mean values ± SD (standard deviation). The assessment of the cytotoxicity data used a one-way analysis of variance (ANOVA) followed by Dunnett’s post hoc test, which was applied to determine significance relative to the negative control.

S. aureus ATCC 25923 = assay: micro-dilution broth method (MIC, MBC); format: cell-based, Staphylococcus aureus
[4] = system: S. epidermidis ATCC 12228; assay: micro-dilution broth method (MIC, MBC); format: cell-based, Staphylococcus epidermidis
B. subtilis ATCC 6633 = assay: micro-dilution broth method (MIC, MBC); format: cell-based, Bacillus subtilis
E. faecalis ATCC 29212 = assay: micro-dilution broth method (MIC, MBC); format: cell-based, Enterococcus faecalis
[5] = system: C. perfringens ATCC 13124; assay: microbe, parasite or virus in culture; format: cell-based, Clostridium perfringens
K. pneumoniae ATCC 13883 = assay: micro-dilution broth method (MIC, MBC); format: cell-based, Klebsiella pneumoniae
P. aeruginosa ATCC 9027 = assay: micro-dilution broth method (MIC, MBC); format: cell-based, Pseudomonas aeruginosa
P. intermedia ATCC 25611 = assay: micro-dilution broth method (MIC, MBC); format: cell-based
V. parvula ATCC 10790 = assay: micro-dilution broth method (MIC, MBC); format: cell-based, Veillonella parvula
[6] = S. aureus ATCC 25923, value in brackets
[7] = S. epidermidis ATCC 12228, value in brackets
[8] = B. subtilis ATCC 6633, value in brackets
[9] = E. faecalis ATCC 29212, value in brackets
[10] = C. perfringens ATCC 13124, value in brackets
[11] = Clostridium perfringens, ATCC13124
[12] = K. pneumoniae ATCC 13883, value in brackets
[13] = P. aeruginosa ATCC 9027, value in brackets
[14] = P. intermedia ATCC 25611, value in brackets
[15] = V. parvula ATCC 10790, value in brackets

## Cc1ncc([N+](=O)[O-])n1CCO [MTZ, 2-Methyl-5-nitroimidazole-1-ethanol]
HepG2 cells [1]; Homo sapiens
  IC50: > 10 µM
HepG2 cells [2]; Homo sapiens
  IC50: > 10 µM
HepG2 cells [3]; Homo sapiens
  IC50: > 10 µM
S. aureus ATCC 25923; [6]
  MBC: > 5.85 µM/mL
  MIC: > 5.85 µM/mL
S. aureus ATCC 25923; Staphylococcus aureus, ATCC25923, S. aureus ATCC 25923, read-out: MBC
  MBC: > 1000 µg/mL
S. aureus ATCC 25923; Staphylococcus aureus, ATCC25923, S. aureus ATCC 25923, read-out: MIC
  MIC: > 1000 µg/mL
[4]; [7]
  MBC: 2.93 µM/mL
  MIC: 2.93 µM/mL
[4]; Staphylococcus epidermidis, ATCC12228, S. epidermidis ATCC 12228, read-out: MBC
  MBC: 500 µg/mL (≈ 2920 µM)
[4]; Staphylococcus epidermidis, ATCC12228, S. epidermidis ATCC 12228, read-out: MIC
  MIC: 500 µg/mL (≈ 2920 µM)
B. subtilis ATCC 6633; [8]
  MBC: 1.46 µM/mL
  MIC: 0.73 µM/mL
B. subtilis ATCC 6633; Bacillus subtilis, ATCC6633, B. subtilis ATCC 6633, read-out: MBC
  MBC: 250 µg/mL (≈ 1460 µM)
E. faecalis ATCC 29212; [9]
  MBC: > 5.85 µM/mL
  MIC: > 5.85 µM/mL
E. faecalis ATCC 29212; Enterococcus faecalis, ATCC29212, E. faecalis ATCC 29212, read-out: MBC
  MBC: > 1000 µg/mL
E. faecalis ATCC 29212; Enterococcus faecalis, ATCC29212, E. faecalis ATCC 29212, read-out: MIC
  MIC: > 1000 µg/mL
[5]; [10]
  MBC: 0.01 µM/mL
  MIC: 0.01 µM/mL
[5]; [11]
  MBC: 1.95 µg/mL (≈ 11.4 µM)
  MIC: 1.95 µg/mL (≈ 11.4 µM)
K. pneumoniae ATCC 13883; [12]
  MBC: 5.85 µM/mL
  MIC: 5.85 µM/mL
K. pneumoniae ATCC 13883; Klebsiella pneumoniae, ATCC13883, K. pneumoniae ATCC 13883, read-out: MBC
  MBC: 1000 µg/mL (≈ 5840 µM)
K. pneumoniae ATCC 13883; Klebsiella pneumoniae, ATCC13883, K. pneumoniae ATCC 13883, read-out: MIC
  MIC: 1000 µg/mL (≈ 5840 µM)
P. aeruginosa ATCC 9027; [13]
  MBC: > 5.85 µM/mL
  MIC: > 5.85 µM/mL
P. aeruginosa ATCC 9027; Pseudomonas aeruginosa, ATCC9027, P. aeruginosa ATCC 9027, read-out: MBC
  MBC: > 1000 µg/mL
P. aeruginosa ATCC 9027; Pseudomonas aeruginosa, ATCC9027, P. aeruginosa ATCC 9027, read-out: MIC
  MIC: > 1000 µg/mL
P. intermedia ATCC 25611; [14]
  MBC: > 5.85 µM/mL
  MIC: 5.85 µM/mL
P. intermedia ATCC 25611; Prevotella intermedia, ATCC25611, P. intermedia ATCC 25611, read-out: MBC
  MBC: > 1000 µg/mL
P. intermedia ATCC 25611; Prevotella intermedia, ATCC25611, P. intermedia ATCC 25611, read-out: MIC
  MIC: 1000 µg/mL (≈ 5840 µM)
V. parvula ATCC 10790; [15]
  MBC: 0.01 µM/mL
  MIC: 0.01 µM/mL
V. parvula ATCC 10790; Veillonella parvula, ATCC10790
  MBC: 1.95 µg/mL (≈ 11.4 µM)
  MIC: 1.95 µg/mL (≈ 11.4 µM)

## O=S(=O)([O-])[O-].[Ag+].[Ag+] [Ag2SO4, silver sulfate]
HepG2 cells [1]
  IC50: > 10 µM
HepG2 cells [2]
  IC50: > 10 µM
HepG2 cells [3]
  IC50: > 10 µM
S. aureus ATCC 25923; S. aureus ATCC 25923
  MBC: 31.3 µg/mL
  MIC: 15.6 µg/mL
S. aureus ATCC 25923; [6]
  MBC: 0.1 µM/mL
  MIC: 0.05 µM/mL
[4]; S. epidermidis ATCC 12228
  MBC: 31.3 µg/mL
  MIC: 15.6 µg/mL
[4]; [7]
  MBC: 0.1 µM/mL
  MIC: 0.05 µM/mL
B. subtilis ATCC 6633; B. subtilis ATCC 6633
  MBC: 31.3 µg/mL
  MIC: 31.3 mg/L
B. subtilis ATCC 6633; [8]
  MBC: 0.1 µM/mL
  MIC: 0.1 µM/mL
E. faecalis ATCC 29212; E. faecalis ATCC 29212
  MBC: 125 µg/mL
  MIC: 31.3 µg/mL
E. faecalis ATCC 29212; [9]
  MBC: 0.4 µM/mL
  MIC: 0.1 µM/mL
[5]; C. perfringens ATCC 13124
  MBC: 250 µg/mL
  MIC: 250 µg/mL
[5]; [10]
  MBC: 0.8 µM/mL
  MIC: 0.8 µM/mL
K. pneumoniae ATCC 13883; K. pneumoniae ATCC 13883
  MBC: 31.3 µg/mL
  MIC: 31.3 µg/mL
K. pneumoniae ATCC 13883; [12]
  MBC: 0.1 µM/mL
  MIC: 0.1 µM/mL
P. aeruginosa ATCC 9027; P. aeruginosa ATCC 9027
  MBC: 125 µg/mL
  MIC: 62.5 µg/mL
P. aeruginosa ATCC 9027; [13]
  MBC: 0.4 µM/mL
  MIC: 0.2 µM/mL
P. intermedia ATCC 25611; P. intermedia ATCC 25611
  MBC: 7.8 µg/mL
  MIC: 7.8 µg/mL
P. intermedia ATCC 25611; [14]
  MBC: 0.025 µM/mL
  MIC: 0.025 µM/mL
V. parvula ATCC 10790; V. parvula ATCC 10790
  MBC: 62.5 µg/mL
  MIC: 62.5 µg/mL
V. parvula ATCC 10790; [15]
  MBC: 0.2 µM/mL
  MIC: 0.2 µM/mL
